Data from patent US20060089407A1, “Methods for Making and Using Synergistic Multifunctional Compositions” (NATIONAL RESEARCH LABORATORIES, LTD., priority 2004, published 2006).

How the values were obtained:
viruses = conditions: cited from earlier work
normal cells = conditions: cited from earlier work

SMILES	anti-inflammatory performance (inflammatory processes)	anti-viral activity (viruses)	toxicity to normal cells (normal cells)
O=C([O-])CC([O-])(CC(=O)[O-])C(=O)[O-].[Cu+2].[Na+].[Na+] [MCC, disodium monocopper (II) citrate dihydrate]	demonstrated utility on relieving inflammatory processes	–	–
CC(=O)[O-].CC(=O)[O-].[Zn+2] [zinc acetate]	–	very toxic to viruses	quite toxic to normal cells
